Data on one compound can be found in patent US10653680B2, “Treatment of impulsivity-related disorders” (OXFORD UNIVERSITY INNOVATION LIMITED, priority 2016, dated 2020).

Molecules are shown by their SMILES.

Experiment [1] deals with rats. Description: 5-CSRTT, stimulant (cocaine)-induced responding. The class given is in vivo, rats (males; Long Evans). As for the experimental part: (§1) Testing was carried out in Vancouver (Canada) using rats (males; Long Evans from Charles River) which were given at least two weeks to acclimatise to the animal facility. They were housed in pairs on a 12 hour reverse light-dark cycle (lights off at 7 am). In the second week of acclimatisation, rats were handled briefly each day. […] For each task, there was then a habituation session to the operant boxes before training began.
(§2) Ebselen, cocaine and 2,5-dimethoxy-4-iodoamphetamine (DOI) were obtained from Sigma Aldrich, and MDL 100,907 was obtained from Tocris. Ebselen was dissolved in 0.5M DMSO and made up to injection volume (8 ml/kg) using 4% cyclodextrin. Cocaine and DOI were dissolved in 0.9% saline. MDL 100,907 was dissolved in 0.9% saline and the pH was adjusted to 6.25 using 1M NaOH and 0.1M HCl.
(§3) All data for the cognitive tasks are presented as mean+SEM change from baseline: • performance on drug day−performance on the previous day
In experiments investigating the effect of ebselen on cocaine and DOI, data were analysed with a two-way ANOVA with ebselen and cocaine/DOI as between-subject factors. If an interaction was detected, this was further investigated using simple main effects analysis. All analyses were conducted using SPSS 22 with p<0.05 considered significant.
To assess the effect of ebselen on stimulant-induced responding, ebselen (10 mg/kg) or vehicle was administered 1 hour prior to cocaine (15 mg/kg i.p.), which in turn was administered 10 minutes prior to testing. Treatments were administered using according to a Latin square design. The inter-trial interval for these sessions was 5 seconds. Two rats were excluded from the data due to increasing levels of omissions across all days of this portion of the study. The experiment was repeated using 0.03 mg/kg MDL 100,907 instead of ebselen.

Experiment [2] concerns rats. In words: 5 Choice Serial Reaction Time Task (5-CSRTT). The class given is in vivo, rats (males; Long Evans). As to the method:
as §1, §2, §3
The data were analysed with repeated measures ANOVA with dose as a within-subject factor. Where appropriate, post-hoc analysis was performed using Student's paired t-test.
This test was performed as described previously (Bari et al., Nature Protocols, 2008, 3(5), 759-767; Robbins, Psychopharmacology, 2002, 163(3), 362-380).
Fourteen rats were trained to respond to brief visual cues presented in one of five target areas with an inter-trial interval of 5 seconds. On the day of testing in the presence of ebselen, the inter-trial interval was lengthened to 7 seconds to cause a reliable increase in premature responding.
Ebselen and vehicle were administered by intraperitoneal (i.p.) injection 1 hour prior to testing. Three doses of ebselen (2, 5 or 10 mg/kg) were studied, administration being in a random order that was determined by a Latin square design. Rats were run five days a week, with the treatment day falling on day three.
Following ebselen, 3 doses of MDL 100,907 (0.01, 0.03 and 0.1 mg/kg, i.p.) were tested in a Latin square design with the first injection occurring one week after the final injection of ebselen. MDL 100,907 is a selective 5-HT2A antagonist. Rats were similarly run five days a week with injections falling on the third day, and the lengthened inter-trial interval was used only on the drug-administration day.
The Latin square design (for both the 5-CSRTT and rGT experiments) was counterbalanced, based on performance in the last training day of each task. A one week wash-out period was given between drug-administration days. A baseline session was performed both the day before and the day after treatment to ensure stable off-drug performance.

As for `COc1cccc([C@H](O)C2CCN(CCc3ccc(F)cc3)CC2)c1OC` [MDL 100,907, reference compound], the “cocaine-induced increases in premature responding” value in the experiment with rats [1] (MDL 100,907 0.03 mg/kg before cocaine 15 mg/kg i.p., p=0.282) is listed as “did not reduce cocaine-induced increases in premature responding”. Besides, the correct response latency result in the experiment with rats [1] (MDL 100,907 0.03 mg/kg, cocaine experiment, p=0.072) is listed as “increased trend”. Further, the “accuracy (decrease seen following vehicle injection)” value in the experiment on rats [2] (MDL 100,907 0.01 mg/kg (second mention), p=0.027) is listed as “significantly negated the decrease in accuracy”; in the experiment on rats [2] (MDL 100,907 0.01 mg/kg i.p., p=0.020), “significantly negated the decrease in accuracy”; in the experiment on rats [2] (MDL 100,907 0.03 mg/kg i.p., p=0.052) it was “trend”. In addition, the “other parameters of the 5-CSRTT” value with rats [2] (MDL 100,907 0.01, 0.03, 0.1 mg/kg i.p., p=0.170-0.872) was “no detectable effects”. In the experiment on rats [2] (MDL 100,907 at all dosage levels (0.01, 0.03 and 0.1 mg/kg i.p.) vs vehicle, p=0.008, 0.009, 0.001), the premature responding entry is recorded as “decreased premature responding”.
